For test [1], the system named is CT26-CLDN18.2 syngeneic tumor. The test can be described thus: CT26-CLDN18.2 syngeneic tumor model, 18B10 and Atezolizumab. It is filed as in vivo, BALB/c mice. An excerpt:
CT26 is synergic mouse tumor model. CT26-CLDN18.2 was purchased from Kyinno (Cat #, KC-1195), which was stalely transfected with human CLDN18.2 expression. The tumor cells were routinely sub-cultured twice weekly by trypsin-EDTA treatment (Hyclone). The cells growing in an exponential growth phase were harvested and counted for tumor inoculation. Female SPF grade BALB/c mice were inoculated with 2×10^6 CT26-CLDN18.2 cells. Animal were selected and randomized to 4 groups (n=8) when tumors grow to 80-120 mm^3. Animals were then treated with either 10 mg/kg Isotype control, 10 mg/kg anti-CLDN18.2 antibody 18B10, 3 mg/kg anti-PD-L1 antibody Atezolizumab, or 10 mg/kg anti-CLDN18.2 antibody 18B10 and 3 mg/kg anti-PD-L1 antibody Atezolizumab twice a week for 3 weeks by i.p. injection. Tumor size was measured twice a week in two dimensions using a caliper (INSIZE) and the volume was expressed in mm^3 using the formula: V=0.5 a×b^2 where a and b are the long and short diameters of the tumor, respectively. Results were analyzed using Prism GraphPad and expressed as mean±S.E.M. Comparisons between two groups were made by T-test, and the difference is considered significant if p is *<0.05 and **<0.01.

Test [2] concerns MC38-CLDN18.2 syngeneic tumor. The test can be described thus: MC38-CLDN18.2 syngeneic tumor model, 18B10 and Atezolizumab. It is filed as in vivo, C57BL/6 mice. An excerpt:
MC38-CLDN18.2 was purchase from Kyinno (Cat #, KC-1449), which was stable transfected with human CLDN18.2 expression. The tumor cells were routinely sub-culture twice weekly by trypsin-EDTA treatment (Hyclone). The cells growing in an exponential growth phase were harvested and counted for tumor inoculation. Female SPF grade C57BL/6 mice were inoculated with 2×10^6 MC38-CLDN18.2 cells. Animal were selected and randomized to 4 groups (n=6) when tumors grow to 70-100 mm^3. Animals were then treated with 13 mg/kg Isotype control, 10 mg/kg anti-CLDN18.2 antibody 18B10, 3 mg/kg anti-PD-L1 antibody Atezolizumab, 10 mg/kg anti-CLDN18.2 antibody 18B10 and 3 mg/kg anti-PD-L1 antibody Atezolizumab twice a week for 4 weeks by i.p. injection. Tumor size was measured twice a week in two dimensions using a caliper (INSIZE) and the volume was expressed in mm^3 using the formula: V=0.5 a×b^2 where a and b are the long and short diameters of the tumor, respectively. Results were analyzed using Prism GraphPad and expressed as mean±S.E.M. Comparisons between two groups were made by T-test, and the difference is considered significant if p is *<0.05 and **<0.01.

Test [3] concerns CLDN18.2-expressing gastric tumor cell lines NUGC-4, KATOIII and SNU-620. The test can be described thus: Upregulation of PD-L1 expression on tumor cells by supernatant of target cell/PBMC co-culture, flow cytometry. It is filed as cell-based. Particulars: supernatant of target cell + human PBMC (E/T 40:1) with 30 μg/ml 18B10 (S3), or of target cell with 5 ng/ml IFN-γ (S4), 72 h. How it is done:
In this assay, three different CLDN18.2-expressing gastric tumor cell lines, NUGC-4 (JCRB, Cat #JCRBB0834), KATOIII (ATCC, Cat #HTB-103) and SNU-620 (Cobioer, Cat #CBP60508), were used as target cell and added to the cell culture plate. No antibody, 30 μg/ml of anti-CLDN18.2 antibody 18B10, 30 μg/ml of isotype control hIgG1 or 5 ng/ml IFN-γ were added into the corresponding wells with the target cell. After the plate was co-cultured at 37° C. for 30 mins, human PBMC as the effector cell was added with a E/T ratio of 40:1. The plate was incubated at 37° C. for 72 hours. At the end of incubation, 100 μl of cell culture supernatant of each well was transferred to another cell culture plate with the same target cell planted. After the second plate was incubated at 37° C. for 72 hours, the target cells were collected and analyzed for PD-L1 expression by flowcytometry using mouse anti-human PD-L1 antibody (BD Pharmingen, Cat #557924). S1 stood for the supernatant of the target cell alone; S2 stood for the supernatant of the target cell and human PBMC with isotype control hIgG1; S3 stood for the supernatant of the target cell and human PBMC with anti-CLDN18.2 antibody 18B10; S4 stood for the supernatant of the target cell with IFN-γ.

[4] abbreviates: 18B10 10 mg/kg, Atezolizumab 3 mg/kg.

For the substance Atezolizumab [reference compound], the “antitumor activity compared with isotype control” value in test [1] (setting [4]) and in test [2] (setting [4]) was “better antitumor activity compared with treatment with isotype control” in each case. Also, the TGI in test [1] (Day 33, 18B10 10 mg/kg, Atezolizumab 3 mg/kg, i.p. twice a week for 3 weeks) is 71.16%; in test [2] (Day 51, 18B10 10 mg/kg, Atezolizumab 3 mg/kg, i.p. twice a week for 4 weeks), 71.14%. Moreover, the Tumor size in test [1] (Day 33, 18B10 10 mg/kg, Atezolizumab 3 mg/kg, i.p. twice a week for 3 weeks, mean ± S.E.M.) is reported as 1350.18 ± 366.69 mm^3; in test [2] (Day 51, 18B10 10 mg/kg, Atezolizumab 3 mg/kg, i.p. twice a week for 4 weeks, mean ± S.E.M.) it was 1154.61 ± 526.35 mm^3. Further, the CR in test [1] (Day 33, animals per group) is 2/8; in test [2] (Day 51, animals per group) it was 0/6.

For “IFN-γ: IFN-γ, 5 ng/ml added to target cells as comparison (S4) [reference compound]”, the “PD-L1 expression of target cells compared to S1 group (target cell alone)” value in test [3] is given as “increased PD-L1 expression”.

As a reminder, the TGI is how far tumour growth fell short of that in controls.

Values taken from patent US20250326834A1, “COMBINATION THERAPY OF CLAUDIN 18.2 ANTAGONIST AND PD-1/PD-L1 AXIS INHIBITOR” (SUZHOU TRANSCENTA THERAPEUTICS CO., LTD., priority 2021, published 2025).
